Measurements: PubChem BioAssay (NCI)
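Values below derive from 48-hour exposures of cells grown in 96-well plates, with endpoints linearly interpolated between the two concentrations bracketing the appropriate inhibition level. TGI: total growth inhibition.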

Columns and labels:
Experiment in all cases: inhibition of tumour cell growth, NCI panel, 48 h
[1] = test system: SK-MEL-28 melanoma
[2] = test system: NCI-H522 lung
[3] = test system: HCT-15 colon
[4] = test system: 786-0 renal
[5] = test system: SF-295 CNS
[6] = test system: EKVX NSCLC
[7] = test system: HOP-92 NSCLC
[8] = test system: LOX IMVI melanoma
[9] = test system: A549 NSCLC
[10] = test system: SW-620 colon
[11] = test system: HCT-116 colon
[12] = test system: OVCAR-8 ovarian
[13] = test system: OVCAR-3 ovarian
[14] = test system: MDA-MB-435
[15] = test system: SNB-75 CNS
[16] = test system: NCI-H460 lung
[17] = test system: U251 CNS
[18] = test system: NCI-H226 lung
[19] = test system: KM12 colon
[20] = test system: HT29 colon
[21] = test system: M14 melanoma
[22] = test system: OVCAR-5 ovarian
[23] = test system: TK-10 renal
[24] = test system: BT-549 breast
[25] = test system: ACHN renal
[26] = test system: A498 renal
[27] = test system: MALME-3M melanoma
[28] = test system: CCRF-CEM leukemia
[29] = test system: SK-MEL-5 melanoma
[30] = test system: UACC-62 melanoma
[31] = test system: NCI-H23 lung
[32] = test system: UACC-257 melanoma
[33] = test system: COLO 205 colon
[34] = test system: IGROV1 ovarian
[35] = test system: NCI/ADR-RES ovarian
[36] = test system: HCC-2998 colon
[37] = test system: UO-31 renal
[38] = test system: DU-145 prostate
[39] = test system: K-562 leukemia
[40] = test system: HOP-62 NSCLC
[41] = test system: RXF 393 renal
[42] = test system: CAKI-1 renal
[43] = test system: MDA-MB-231 breast
[44] = test system: OVCAR-4 ovarian
[45] = test system: SF-539 CNS
[46] = test system: SN12C renal
[47] = test system: HS 578T breast
[48] = test system: MOLT-4 leukemia
[49] = test system: HL-60(TB) leukemia
[50] = test system: SK-OV-3 ovarian
[51] = test system: SNB-19 CNS
[52] = test system: SF-268 CNS
[53] = test system: PC-3 prostate
[54] = test system: T-47D breast
[55] = test system: MDA-N
[56] = test system: SR leukemia
[57] = test system: RPMI-8226 leukemia
[58] = test system: MCF7 breast
[59] = test system: SK-MEL-2 melanoma

## Cc1cc2c(cc1Cl)SC(NNc1cnc3ccccc3n1)=NS2(=O)=O
[1]
  TGI: > 100 µM
[2]
  TGI: > 100 µM
[3]
  TGI: > 100 µM
[4]
  TGI: > 100 µM
[5]
  TGI: > 100 µM
[6]
  TGI: > 100 µM
[7]
  TGI: 77.2 µM
[8]
  TGI: > 100 µM
[9]
  TGI: > 100 µM
[10]
  TGI: > 100 µM
[11]
  TGI: > 100 µM
[12]
  TGI: > 100 µM
[13]
  TGI: > 100 µM
[14]
  TGI: > 100 µM
[15]
  TGI: > 100 µM
[16]
  TGI: > 100 µM
[17]
  TGI: > 100 µM
[18]
  TGI: > 100 µM
[19]
  TGI: > 100 µM
[20]
  TGI: > 100 µM
[21]
  TGI: > 100 µM
[22]
  TGI: > 100 µM
[23]
  TGI: > 100 µM
[24]
  TGI: > 100 µM
[25]
  TGI: > 100 µM
[26]
  TGI: 65.7 µM
[27]
  TGI: > 100 µM
[28]
  TGI: > 100 µM
[29]
  TGI: > 100 µM
[30]
  TGI: > 100 µM
[31]
  TGI: > 100 µM
[32]
  TGI: > 100 µM
[33]
  TGI: > 100 µM
[34]
  TGI: > 100 µM
[35]
  TGI: > 100 µM
[36]
  TGI: > 100 µM
[37]
  TGI: > 100 µM
[38]
  TGI: > 100 µM
[39]
  TGI: > 100 µM
[40]
  TGI: > 100 µM
[41]
  TGI: > 100 µM
[42]
  TGI: > 100 µM
[43]
  TGI: > 100 µM
[44]
  TGI: > 100 µM
[45]
  TGI: 87 µM
[46]
  TGI: > 100 µM
[47]
  TGI: > 100 µM
[48]
  TGI: 63.5 µM
[49]
  TGI: > 100 µM
[50]
  TGI: > 100 µM
[51]
  TGI: > 100 µM
[52]
  TGI: > 100 µM
[53]
  TGI: > 100 µM
[54]
  TGI: > 100 µM
[55]
  TGI: > 100 µM

## CC1=CCC[C@H]2[C@](C)(CC3=CC(=O)C4SCCSC4C3=O)[C@@H](C)CC[C@]12C (some centres undefined)
[1]
  TGI: 38.4 µM
[56]
  TGI: 53.6 µM
[3]
  TGI: 67.1 µM
[4]
  TGI: 35 µM
[5]
  TGI: 32.8 µM
[6]
  TGI: 54.4 µM
[7]
  TGI: 70.4 µM
[8]
  TGI: 24.3 µM
[9]
  TGI: 38.3 µM
[10]
  TGI: 65.6 µM
[11]
  TGI: 31 µM
[12]
  TGI: 39.6 µM
[13]
  TGI: 48.4 µM
[14]
  TGI: 58.7 µM
[15]
  TGI: 80.8 µM
[16]
  TGI: 65 µM
[17]
  TGI: 34.5 µM
[18]
  TGI: 30.3 µM
[19]
  TGI: > 100 µM
[21]
  TGI: 29.8 µM
[22]
  TGI: 37.5 µM
[24]
  TGI: 39.7 µM
[25]
  TGI: 46.1 µM
[26]
  TGI: 31.2 µM
[28]
  TGI: 48.7 µM
[29]
  TGI: 26.7 µM
[30]
  TGI: 39.9 µM
[31]
  TGI: 31.9 µM
[32]
  TGI: 64 µM
[33]
  TGI: 35.9 µM
[34]
  TGI: 84.6 µM
[35]
  TGI: 47.2 µM
[36]
  TGI: 55.8 µM
[37]
  TGI: 40.1 µM
[38]
  TGI: 66.9 µM
[57]
  TGI: 41.8 µM
[39]
  TGI: 96.2 µM
[40]
  TGI: 31.1 µM
[41]
  TGI: 44.8 µM
[42]
  TGI: 99.2 µM
[43]
  TGI: 46.7 µM
[44]
  TGI: > 100 µM
[58]
  TGI: 63.8 µM
[45]
  TGI: 40.3 µM
[46]
  TGI: 28.8 µM
[48]
  TGI: 80.7 µM
[51]
  TGI: 37.1 µM
[53]
  TGI: 49.4 µM
[54]
  TGI: > 100 µM
[59]
  TGI: 23.2 µM
[55]
  TGI: 25.9 µM

## CCN(CC)C(=S)SS(=O)(=O)c1ccc(C)cc1
[1]
  TGI: 39.4 µM
[3]
  TGI: > 100 µM
[4]
  TGI: 50.5 µM
[5]
  TGI: > 100 µM
[6]
  TGI: > 100 µM
[8]
  TGI: 36.1 µM
[10]
  TGI: 45.2 µM
[12]
  TGI: 40.2 µM
[13]
  TGI: > 100 µM
[14]
  TGI: > 100 µM
[16]
  TGI: > 100 µM
[17]
  TGI: 69.6 µM
[18]
  TGI: > 100 µM
[19]
  TGI: 30.6 µM
[20]
  TGI: 30.2 µM
[21]
  TGI: 28.2 µM
[22]
  TGI: > 100 µM
[23]
  TGI: > 100 µM
[24]
  TGI: 68.2 µM
[25]
  TGI: > 100 µM
[26]
  TGI: > 100 µM
[27]
  TGI: 41.9 µM
[29]
  TGI: 30.4 µM
[30]
  TGI: > 100 µM
[31]
  TGI: > 100 µM
[32]
  TGI: 46.3 µM
[33]
  TGI: 63.7 µM
[35]
  TGI: > 100 µM
[36]
  TGI: > 100 µM
[37]
  TGI: 51.2 µM
[38]
  TGI: > 100 µM
[39]
  TGI: > 100 µM
[40]
  TGI: 85.5 µM
[41]
  TGI: 33.4 µM
[42]
  TGI: 37.3 µM
[43]
  TGI: > 100 µM
[44]
  TGI: > 100 µM
[45]
  TGI: 39 µM
[46]
  TGI: 49.7 µM
[47]
  TGI: > 100 µM
[50]
  TGI: > 100 µM
[51]
  TGI: > 100 µM
[52]
  TGI: > 100 µM
[54]
  TGI: > 100 µM
[59]
  TGI: > 100 µM
[55]
  TGI: > 100 µM

## COC(=O)C(CCCCNC(=O)CNC(=O)OCc1ccccc1)NC(=O)C(CCCCNC(=O)CNC(=O)OCc1ccccc1)NC(=O)OCc1ccccc1 (centres undefined)
[1]
  TGI: > 100 µM
[56]
  TGI: > 100 µM
[3]
  TGI: > 100 µM
[4]
  TGI: > 100 µM
[8]
  TGI: > 100 µM
[9]
  TGI: > 100 µM
[10]
  TGI: > 100 µM
[11]
  TGI: > 100 µM
[12]
  TGI: > 100 µM
[13]
  TGI: > 100 µM
[14]
  TGI: > 100 µM
[15]
  TGI: > 100 µM
[16]
  TGI: > 100 µM
[17]
  TGI: > 100 µM
[18]
  TGI: > 100 µM
[20]
  TGI: > 100 µM
[21]
  TGI: > 100 µM
[22]
  TGI: > 100 µM
[23]
  TGI: > 100 µM
[24]
  TGI: > 100 µM
[25]
  TGI: > 100 µM
[26]
  TGI: > 100 µM
[27]
  TGI: > 100 µM
[28]
  TGI: > 100 µM
[29]
  TGI: > 100 µM
[30]
  TGI: > 100 µM
[31]
  TGI: > 100 µM
[32]
  TGI: > 100 µM
[36]
  TGI: > 100 µM
[37]
  TGI: > 100 µM
[38]
  TGI: > 100 µM
[57]
  TGI: 53.5 µM
[39]
  TGI: > 100 µM
[40]
  TGI: > 100 µM
[42]
  TGI: > 100 µM
[43]
  TGI: > 100 µM
[44]
  TGI: 89.9 µM
[58]
  TGI: 19.1 µM
[46]
  TGI: > 100 µM
[48]
  TGI: > 100 µM
[49]
  TGI: > 100 µM
[51]
  TGI: > 100 µM
[52]
  TGI: > 100 µM
[53]
  TGI: > 100 µM
[54]
  TGI: > 100 µM
[59]
  TGI: 54.2 µM
[55]
  TGI: > 100 µM
